Where two headings read alike, the source gives them in different places.
Assays:
[1] = tested on: human apical-out ileal enteroids; experiment: Biotransformation in apical-out ileal enteroids (RP-UHPLC-PDA-MSn); format: in vitro ADME; details: for sulfation (LC-MS analysis): human ileal apical-out and apical-in enteroids; for biotransformation products formed: released on the apical side; for phase I biotransformation products: up to 24 h incubation
Description: Biotransformation of glab, licoA, and glycy in apical-out and apical-in enteroids was evaluated after 0, 4, and 24 h of incubation. For this, apical-out enteroids were stimulated with 50 μg mL^–1 (154 μM) glab, or with 100 μg mL^–1 licoA (296 μM), or 100 μg mL^–1 glycy (272 μM), and apical-in enteroids were stimulated with 50 μg mL^–1 glab (154 μM), 50 μg mL^–1 licoA (148 μM), or 50 μg mL^–1 glycy (136 μM). […] For apical-out enteroids, parent compounds and their transformation products were assessed on the enteroids’ apical (facing the medium) and basolateral side (inside the enteroids) and intracellularly. In apical-in enteroids, parent compounds and metabolites were assessed on the basolateral side (facing the medium). For the apical release, apical-out enteroids were pelleted (250g, 3 min, 4 °C), and the supernatant was used for LC-MS analysis, after which the enteroids were washed with PBS. Enteroids in a suspension in fresh PBS were broken up by vigorously pipetting up and down approximately for 20 times, after which enteroids were pelleted and the supernatant was used to determine basolateral release by using LC-MS. Enteroids were washed with PBS, and the enteroids’ cells in fresh PBS were disrupted on ice with a digital sonifier (Branson Ultrasonics Corporation, Danbury, CT, USA) with the following settings: a 5 s pulse, a 10 s pause, an amplitude of 55%, and 12 cycles. Enteroids were pelleted, and the supernatant was used as a measure for intracellular release and measured with LC-MS.
Samples were separated on a Thermo Vanquish UHPLC system (Thermo Scientific, San Jose, CA, USA) equipped with a pump, a degasser, an autosampler, and a PDA detector, as described elsewhere.[15] Eluents used were (A) LC-MS-grade MQ + 0.1% FA (v/v) and (B) LC-MS-grade ACN + 0.1% FA (v/v). The elution program was started by running isocratically at 1% B for 1.09 min followed by a 1.09–26.16 min linear gradient to 70% B, a 26.16–27.25 min linear gradient to 100% B, and 27.25–32.70 min isocratically at 100% B. The eluent was adjusted to start conditions in 1.09 min followed by equilibration of 5.45 min.
Mass spectrometric data were acquired using an LTQ Velos Pro linear ion trap mass spectrometer (Thermo Scientific), equipped with a heated ESI probe coupled in-line to the Vanquish UHPLC system, as described elsewhere.[15] Data were processed using Xcalibur 4.1 (Thermo Scientific).
(§1) Quantification of glab, licoA, glycy, and produced metabolites was based on UV absorbance at 280 nm (glab), 340–390 nm (licoA), and 320–370 nm (glycy). For this, a seven-point calibration (0.01–150 μg mL^–1) curve based on external standards of glab, licoA, and glycy (R^2 > 0.999) was used. UV peaks were integrated using the AVALON integration algorithm with the autocalc function (Xcalibur 4.1). Metabolites were quantified as glab, licoA, or glycy equivalents.

[2] = Stability in the medium without enteroids; format: physicochemical; details: after 24 h of incubation
Description: as §1

[3] = tested on: human CYP enzymes (i.e., CYP3A4); design: method as in PMID 17220245, PMID 28774812, PMID 12019199, PMID 26100226; details: cited from earlier work
[4] = Cell viability by WST-1 assay in apical-out enteroids; format: cell-based, human; details: human
Description: (§2) Cytotoxicity and effects on cell viability after exposure to glab, licoA, and glycy in apical-out and apical-in enteroids (6.25–500 μg mL^–1) and proliferating Caco-2 cells (3.13–100 μg mL^–1) were determined by LDH leakage (Section 2.6.1) and WST-1 assays (Section 2.6.2), respectively. For this, stock solutions of 50 mg mL^–1 of glab, licoA, and glycy in DMSO were used. […] An overview of the experimental conditions for the exposure experiments with glab, licoA, and glycy is shown in Table S2 (Supporting Information). In brief, apical-out and apical-in enteroids were grown for 7–10 days in OGM (∼200 enteroids per dome), after which the medium was changed to ODM (supplemented with 5 μM DAPT) to initiate enteroid differentiation. To generate apical-out enteroids, MG was removed from apical-in enteroids in OGM at day 7–10, as described in Section 2.3, and suspended in supplemented ODM. After 3 days in ODM, the effects on cytotoxicity and cell viability of glab, licoA, and glycy in apical-out and apical-in enteroids (passages between 3 and 17) were assessed after 4 and 24 h of incubation. For apical-out enteroids in a suspension, enteroids were pelleted by centrifugation (2 min, 200g, RT), after which the ODM was removed and 500 μL of the experimental agent was added. […] Caco-2 cells were grown for 48 h after seeding before experiments (passages 14–19) with proliferating cells and for 21 days after seeding (passages 14–33) with differentiated cells.[17] The medium (DMEM supplemented with FCS) was changed every 2 days. For exposure experiments, Caco-2 cells were incubated with glab, licoA, and glycy in DMEM without FCS, as FCS serves as an exogenous source of LDH.[22]
Effects on cell viability after stimulation by glab, licoA, and glycy were assessed by measuring cleavage of the tetrazolium salt WST-1 to formazan catalyzed by cellular mitochondrial dehydrogenases and analyzed using a WST-1 cell viability kit (PromoKine, Heidelberg, Germany), according to the manufacturer’s instructions. Cell viability was expressed as the percentage of the control cells (enteroids or Caco-2 cells grown in a medium) and was calculated with eq 2. [drawing 2] 2 in which exp. value is the UV absorbance at 450 nm (Tecan Spark or Tecan Infinite 200 Pro) and low control is the spontaneous cleavage of WST-1 to formazan by mitochondrial dehydrogenases in untreated enteroids or Caco-2 cells.

[5] = tested on: human ileal apical-out enteroids; experiment: Cytotoxicity by LDH leakage assay in apical-out enteroids; format: cell-based
Description: as §2
Cytotoxic effects of glab, licoA, and glycy were assessed by measuring leakage of intracellular lactate dehydrogenase (LDH) in the supernatant and analyzed using an LDH cytotoxicity detection kit (Roche Applied Science, Almere, The Netherlands), according to the manufacturer’s instructions. The LDH activity in the supernatant was expressed as the percentage of the maximum releasable LDH in enteroids or Caco-2 cells (enteroids or Caco-2 cells treated with 1% (v/v) Triton X-100) and calculated with eq 1. [drawing 1] 1 in which exp. value is the UV absorbance at 492 nm (Tecan Spark or Tecan Infinite 200 Pro, Tecan Group Ltd., Zürich, Switzerland), background control is the medium with corresponding concentration of glab, licoA, or glycy, and high control is the maximum releasable LDH in enteroids or Caco-2 cells. For enteroids, each well was used as its own positive control by taking the total releasable LDH of each well after incubation.

Row | Structure (SMILES) | sulfation (LC-MS analysis) [1] | biotransformation products formed [1] | phase I biotransformation products [1] | recovery in the medium (without enteroids) [2] | inhibition of human CYP enzymes (i.e., CYP3A4) [3] | viability at 4 h, 500 μg mL^–1 [4] | viability at 4 h, 771 µM [4] | fold higher concentration for significant cytotoxicity in apical-out vs apical-in enteroids ([5]; human) | cytotoxicity (LDH) ([5]; human, 4 h, 500 μg mL^–1) | % biotransformation to glucuronide compared to parent at t = 0 h ([1]; 24 h exposure, 100 μg mL^–1 (licoA, glycy), apical side) | viability at 4 h, 500 μg mL^–1 ([4]; apical-out ileal enteroids, 500 μg mL^–1, 4 h exposure, negative control set at 100%, read-out: cell viability (WST-1)) | cytotoxicity (LDH) ([5]; 500 μg mL^–1, 4 h exposure, % of maximum releasable LDH) | effects on cytotoxicity up to the highest concentrations ([5]; 4 h exposure, up to 500 μg mL^–1, p > 0.05)
1 | CC1(C)C=Cc2c(ccc3c2OC[C@@H](c2ccc(O)cc2O)C3)O1 [glabridin] | did not reveal sulfation | glucuronide metabolites | No phase I biotransformation products | 101 ± 2.2% | inhibition | 21 ± 14% | 29% | 3-5 fold |  |  |  |  | 
2 | COc1c(CC=C(C)C)c(O)cc2oc(=O)c(-c3ccc(O)cc3O)cc12 [glycycoumarin] | did not reveal sulfation | glucuronide metabolites | No phase I biotransformation products | 101 ± 3.0% | inhibition | 77 ± 13% |  | 3-5 fold | −2 ± 2% |  |  |  | 
3 | C=CC(C)(C)c1cc(/C=C/C(=O)c2ccc(O)cc2)c(OC)cc1O [licochalcone A] | did not reveal sulfation | glucuronide metabolites | No phase I biotransformation products | 101 ± 3.2% | inhibition |  |  |  |  | comparably low | 77 ± 22% | −6 ± 2% | No significant effects on cytotoxicity
